From ChEMBL document CHEMBL1201862, “PubChem BioAssay data set” (2004)
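Each compound was tested at five concentrations against cells in 96-well plates for 48 hours. GI50 = concentration required for 50% inhibition of growth.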 Calls of active or inactive are those of the source. No stated cut-off is given here; in the data, active = GI50 up to about 1.1 µM and inactive = higher.

Legend:
Test in all cases: NCI anticancer screen, dose series, 48 h
[1] = test system: RXF 393
[2] = test system: CCRF-CEM
[3] = test system: ACHN
[4] = test system: RPMI-8226
[5] = test system: HT-29
[6] = test system: BT-549
[7] = test system: U-251
[8] = test system: KM12
[9] = test system: PC-3
[10] = test system: SR
[11] = test system: TK-10
[12] = test system: HCT-116
[13] = test system: NCI-H460
[14] = test system: SK-MEL-5
[15] = test system: IGROV-1
[16] = test system: HOP-62
[17] = test system: SW-620

Row | Structure (SMILES) | GI50 [1] | GI50 [2] | GI50 [3] | GI50 [4] | GI50 [5] | GI50 [6] | GI50 [7] | GI50 [8] | GI50 [9] | GI50 [10] | GI50 [11] | GI50 [12] | GI50 [13] | GI50 [14] | GI50 [15] | GI50 [16] | GI50 [17]
1 | O=C1/C(=C/c2ccccc2)CCc2ccc(Cl)nc21 | 8.2 µM (inactive) | 1.43 µM (inactive) | 11.9 µM (inactive) | 2.84 µM (inactive) | 1.92 µM (inactive) | 13.9 µM (inactive) | 3.11 µM (inactive) | 2.59 µM (inactive) | 11.7 µM (inactive) | 2.8 µM (inactive) | 13.9 µM (inactive) | 2.55 µM (inactive) | 18.2 µM (inactive) | 5.31 µM (inactive) | 4.5 µM (inactive) | 19.7 µM (inactive) | 3.98 µM (inactive)
2 | CC(C)(C)c1cc(C(=O)/C=C/c2cc[nH]n2)cc(C(C)(C)C)c1O | 1.69 µM (inactive) | 2.07 µM (inactive) | 1.62 µM (inactive) | 1.06 µM (active) | 2.61 µM (inactive) | 4.83 µM (inactive) | 1.73 µM (inactive) | 2.29 µM (inactive) | 2.08 µM (inactive) | 1.19 µM (inactive) | 1.54 µM (inactive) | 2.43 µM (inactive) | 3.72 µM (inactive) | 7.52 µM (inactive) | 1.93 µM (inactive) | 2.86 µM (inactive) | 2.33 µM (inactive)
3 | CC1=Cc2ccc(C)cc2C(=O)C1=O | 1.83 µM (inactive) | 0.176 µM (active) | 1.95 µM (inactive) | 2.16 µM (inactive) | 20.1 µM (inactive) | 21.2 µM (inactive) | 20.4 µM (inactive) | 17.6 µM (inactive) | 15.8 µM (inactive) | 1.58 µM (inactive) | 1.83 µM (inactive) | 5.47 µM (inactive) | 19.8 µM (inactive) | 20.4 µM (inactive) | 14.4 µM (inactive) | 21.3 µM (inactive) | 2.81 µM (inactive)
4 | CN1CCN(CCCCN2c3ccccc3Sc3cc(N=[N+]=[N-])ccc32)CC1 | 2.7 µM (inactive) | 2.14 µM (inactive) | 2.15 µM (inactive) | 2.31 µM (inactive) | 1.61 µM (inactive) | 7.76 µM (inactive) | 2.73 µM (inactive) | 1.84 µM (inactive) | 1.82 µM (inactive) | 5.5 µM (inactive) | 1.91 µM (inactive) | 1.62 µM (inactive) | 1.94 µM (inactive) | 1.57 µM (inactive) | 1.93 µM (inactive) | 2.49 µM (inactive) | 1.98 µM (inactive)
5 | O=[N+]([O-])c1ccc(/C=C(/c2ccc([N+](=O)[O-])o2)S(=O)(=O)c2ccccc2)o1 | 25.1 µM (inactive) | – | 2.84 µM (inactive) | 0.128 µM (active) | 4.49 µM (inactive) | 19.9 µM (inactive) | 15.9 µM (inactive) | 17.7 µM (inactive) | 16.4 µM (inactive) | 1.02 µM (active) | 4.1 µM (inactive) | 1.71 µM (inactive) | 21.2 µM (inactive) | 11.9 µM (inactive) | 16.6 µM (inactive) | 17.8 µM (inactive) | 2.26 µM (inactive)
6 | NNc1nncn1N | > 100 µM (inactive) | 1.25 µM (inactive) | > 100 µM (inactive) | 72.1 µM (inactive) | > 100 µM (inactive) | > 100 µM (inactive) | > 100 µM (inactive) | > 100 µM (inactive) | > 100 µM (inactive) | 39.1 µM (inactive) | > 100 µM (inactive) | > 100 µM (inactive) | > 100 µM (inactive) | > 100 µM (inactive) | > 100 µM (inactive) | > 100 µM (inactive) | > 57.1 µM (inactive)
7 | NNC(=O)CSc1nc2ccccc2c(=O)n1N | 31.7 µM (inactive) | > 100 µM (inactive) | 26.4 µM (inactive) | > 100 µM (inactive) | 22.2 µM (inactive) | 42.1 µM (inactive) | 19.1 µM (inactive) | > 100 µM (inactive) | > 100 µM (inactive) | > 100 µM (inactive) | 16.3 µM (inactive) | 31.6 µM (inactive) | 57.1 µM (inactive) | > 100 µM (inactive) | > 100 µM (inactive) | – | > 100 µM (inactive)
8 | Cc1cc2c(O)c(c1)CN(CC(=O)O)Cc1cc(C)cc(c1O)CN(CC(=O)O)Cc1cc(C)cc(c1O)CN(CC(=O)O)C2 | > 100 µM (inactive) | > 100 µM (inactive) | > 100 µM (inactive) | > 100 µM (inactive) | > 100 µM (inactive) | > 100 µM (inactive) | > 100 µM (inactive) | > 100 µM (inactive) | > 100 µM (inactive) | > 100 µM (inactive) | > 100 µM (inactive) | > 100 µM (inactive) | > 100 µM (inactive) | > 100 µM (inactive) | – | > 100 µM (inactive) | > 100 µM (inactive)
9 | NNC(=O)CC(=O)Nc1cccc(Cl)c1 | > 100 µM (inactive) | > 100 µM (inactive) | > 100 µM (inactive) | > 100 µM (inactive) | > 100 µM (inactive) | > 100 µM (inactive) | > 100 µM (inactive) | > 100 µM (inactive) | > 100 µM (inactive) | > 100 µM (inactive) | > 100 µM (inactive) | > 100 µM (inactive) | > 100 µM (inactive) | > 100 µM (inactive) | > 100 µM (inactive) | > 100 µM (inactive) | > 100 µM (inactive)
10 | Cc1cc(C)n2nc3nc(N)c(C#N)c(-c4ccccc4)c3c2n1 | > 100 µM (inactive) | > 100 µM (inactive) | > 100 µM (inactive) | > 100 µM (inactive) | > 100 µM (inactive) | > 100 µM (inactive) | > 100 µM (inactive) | > 100 µM (inactive) | > 100 µM (inactive) | > 100 µM (inactive) | > 100 µM (inactive) | > 100 µM (inactive) | > 100 µM (inactive) | > 80.2 µM (inactive) | > 100 µM (inactive) | > 100 µM (inactive) | > 100 µM (inactive)
11 | CCOC(=O)C(=O)/C(=C/N1C(=O)CC(=O)NC1=S)C(=O)OCC | > 100 µM (inactive) | > 100 µM (inactive) | > 100 µM (inactive) | > 100 µM (inactive) | > 100 µM (inactive) | > 100 µM (inactive) | > 100 µM (inactive) | > 100 µM (inactive) | > 100 µM (inactive) | > 100 µM (inactive) | – | > 100 µM (inactive) | > 100 µM (inactive) | > 100 µM (inactive) | > 100 µM (inactive) | > 100 µM (inactive) | > 100 µM (inactive)
12 | CC(C)NCCCNc1c2ccccc2nc2cccc([N+](=O)[O-])c12 | 0.00427 µM (active) | 0.0142 µM (active) | 0.0136 µM (active) | 0.00219 µM (active) | 0.00202 µM (active) | 0.0421 µM (active) | 0.0143 µM (active) | 0.0169 µM (active) | 0.00745 µM (active) | < 0.001 µM (active) | 0.0373 µM (active) | 0.0262 µM (active) | 0.00227 µM (active) | 0.00354 µM (active) | < 0.001 µM (active) | 0.0279 µM (active) | 0.00514 µM (active)
13 | O=S(=O)(O)CCCc1cccc2ccccc12 | > 100 µM (inactive) | > 100 µM (inactive) | > 100 µM (inactive) | > 100 µM (inactive) | > 100 µM (inactive) | > 100 µM (inactive) | > 100 µM (inactive) | > 100 µM (inactive) | > 100 µM (inactive) | > 100 µM (inactive) | > 100 µM (inactive) | > 100 µM (inactive) | > 100 µM (inactive) | > 100 µM (inactive) | > 100 µM (inactive) | > 100 µM (inactive) | > 100 µM (inactive)
14 | O=C1O[C@H]2[C@@H]3OC(=O)c4cc(O)c(O)c(O)c4-c4c(cc(O)c(O)c4O)C(=O)OC[C@H]2O[C@@H](OC(=O)c2cc(O)c(O)c(O)c2)[C@@H]3OC(=O)c2cc(O)c(O)c3c2[C@@H]2C1=CC(=O)C(O)(O)C2(O)O3 (stereo not given in full) | 36.5 µM (inactive) | 27 µM (inactive) | 31.5 µM (inactive) | 38.3 µM (inactive) | 16.5 µM (inactive) | 72.8 µM (inactive) | 15.6 µM (inactive) | 22.1 µM (inactive) | 39.7 µM (inactive) | 29 µM (inactive) | – | 16.9 µM (inactive) | 33 µM (inactive) | 25.5 µM (inactive) | 52.8 µM (inactive) | 38.8 µM (inactive) | 18.5 µM (inactive)
15 | COc1cc(-c2cc(=O)c3c(O)c(OC)c(OC)c(OC)c3o2)cc(OC)c1OC [GARDENIN] | 8.83 µM (inactive) | > 100 µM (inactive) | 3.33 µM (inactive) | > 44.7 µM (inactive) | > 100 µM (inactive) | 6.76 µM (inactive) | 3.01 µM (inactive) | > 100 µM (inactive) | > 100 µM (inactive) | > 100 µM (inactive) | 6.92 µM (inactive) | 4.5 µM (inactive) | 5.01 µM (inactive) | 11 µM (inactive) | 68.4 µM (inactive) | 3.43 µM (inactive) | –
16 | C[C@H](CCC(=O)O)[C@H]1CC[C@H]2[C@@H]3[C@@H](O)C[C@@H]4C[C@H](O)CC[C@]4(C)[C@H]3CC[C@]12C [URSODIOL] | > 100 µM (inactive) | > 100 µM (inactive) | > 100 µM (inactive) | 97.9 µM (inactive) | > 100 µM (inactive) | > 100 µM (inactive) | > 100 µM (inactive) | > 100 µM (inactive) | > 100 µM (inactive) | 25.1 µM (inactive) | > 100 µM (inactive) | > 100 µM (inactive) | > 100 µM (inactive) | – | > 100 µM (inactive) | > 100 µM (inactive) | > 100 µM (inactive)
